Reference: ChEMBL document CHEMBL4680278 (J Med Chem, 2020)

Tests used:
[1] = Bioavailability in dog at 180 mg; assay type: ADME, organism-based, Canis lupus familiaris; settings: in vivo
[2] = Apparent oral clearance in human at 5 to 20 mg using oromucosal-spray formulation by GC-MS analysis; assay type: ADME; settings: in vivo, dose 5-20 mg
Cytochrome P450 3A5 = Cytochrome P450 3A5 (Homo sapiens, UniProt P20815); test: Competitive inhibition of human recombinant CYP3A5 expressed in baculovirus-infected insect cells using diltiazem as substrate incubated for 15 mins followed by NADPH-generating system addition by Michaelis-Menten plot analysis; assay type: ADME
Cytochrome P450 2A6 = target: T1, Cytochrome P450 2A6 (Homo sapiens, UniProt P11509); test: Non-competitive inhibition of human recombinant CYP2A6 expressed in baculovirus-infected insect cells using coumarin as substrate preincubated for 5 mins followed by NADPH-generating system addition by Lineweaver-Burk plot analysis; assay type: ADME
T1 sequence (P11509 whole entry): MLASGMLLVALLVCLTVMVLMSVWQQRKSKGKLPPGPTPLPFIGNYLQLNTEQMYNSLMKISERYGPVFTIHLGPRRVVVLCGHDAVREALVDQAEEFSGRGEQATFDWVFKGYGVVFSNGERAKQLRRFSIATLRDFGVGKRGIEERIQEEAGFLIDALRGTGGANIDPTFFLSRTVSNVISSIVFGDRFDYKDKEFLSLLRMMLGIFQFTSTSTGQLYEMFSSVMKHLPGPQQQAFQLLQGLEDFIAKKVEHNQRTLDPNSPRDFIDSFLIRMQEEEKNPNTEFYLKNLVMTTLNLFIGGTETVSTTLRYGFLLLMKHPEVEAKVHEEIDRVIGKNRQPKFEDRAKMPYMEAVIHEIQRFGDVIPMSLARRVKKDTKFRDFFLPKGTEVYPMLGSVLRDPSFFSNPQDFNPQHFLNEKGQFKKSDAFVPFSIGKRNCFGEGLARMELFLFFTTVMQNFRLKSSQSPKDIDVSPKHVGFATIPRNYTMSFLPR

[3] = target: T2, 5-hydroxytryptamine receptor 1A (Homo sapiens, UniProt P08908); test: Displacement of [3H]8-OH-DPAT from human 5-HT1a receptor expressed in CHO cells incubated for 30 mins by liquid scintillation counting method
T2 sequence (P08908 whole entry): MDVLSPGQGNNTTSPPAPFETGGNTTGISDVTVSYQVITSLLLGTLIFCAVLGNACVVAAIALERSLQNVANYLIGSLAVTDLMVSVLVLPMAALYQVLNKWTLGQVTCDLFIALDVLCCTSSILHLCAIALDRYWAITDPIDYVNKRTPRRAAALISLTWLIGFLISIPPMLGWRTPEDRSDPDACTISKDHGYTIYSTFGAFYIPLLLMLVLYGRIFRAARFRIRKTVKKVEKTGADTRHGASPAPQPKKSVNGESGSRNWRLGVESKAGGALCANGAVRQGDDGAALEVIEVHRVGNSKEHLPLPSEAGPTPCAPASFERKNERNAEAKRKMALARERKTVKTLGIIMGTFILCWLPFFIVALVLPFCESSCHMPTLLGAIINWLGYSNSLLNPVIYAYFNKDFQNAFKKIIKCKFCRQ

[4] = Cmax in human plasma at 3.5 +/- 5.5 mg, INH; assay type: ADME, cell-free; design: dose 3.5 mg; settings: inhaled or intranasal, 3.5 mg
Cytochrome P450 1A2 = target: T3, Cytochrome P450 1A2 (Homo sapiens, UniProt P05177); test: Competitive inhibition of human recombinant CYP1A2 using 7-Ethoxyresorufin as substrate by Lineweaver-Burk plot analysis; assay type: ADME; settings: read-out: Ki(app)
T3 sequence (P05177 whole entry): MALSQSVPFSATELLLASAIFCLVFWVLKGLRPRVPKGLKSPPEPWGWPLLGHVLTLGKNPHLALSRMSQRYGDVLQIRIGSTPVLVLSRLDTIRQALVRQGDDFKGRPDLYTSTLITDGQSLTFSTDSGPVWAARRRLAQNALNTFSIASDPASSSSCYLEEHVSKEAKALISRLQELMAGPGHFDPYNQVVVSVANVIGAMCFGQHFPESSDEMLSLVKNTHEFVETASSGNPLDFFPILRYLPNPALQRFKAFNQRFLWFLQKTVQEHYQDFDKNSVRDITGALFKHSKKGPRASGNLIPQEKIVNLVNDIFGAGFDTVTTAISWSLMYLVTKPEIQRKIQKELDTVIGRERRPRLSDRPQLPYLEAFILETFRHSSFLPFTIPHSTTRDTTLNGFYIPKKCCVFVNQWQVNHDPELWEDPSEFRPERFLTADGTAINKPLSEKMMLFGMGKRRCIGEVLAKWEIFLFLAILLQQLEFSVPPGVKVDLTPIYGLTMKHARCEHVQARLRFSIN

[5] = target: T4, Alpha-2C adrenergic receptor (Homo sapiens, UniProt P18825); test: Inhibition of alpha2C receptor (unknown origin)
T4 sequence (P18825 whole entry): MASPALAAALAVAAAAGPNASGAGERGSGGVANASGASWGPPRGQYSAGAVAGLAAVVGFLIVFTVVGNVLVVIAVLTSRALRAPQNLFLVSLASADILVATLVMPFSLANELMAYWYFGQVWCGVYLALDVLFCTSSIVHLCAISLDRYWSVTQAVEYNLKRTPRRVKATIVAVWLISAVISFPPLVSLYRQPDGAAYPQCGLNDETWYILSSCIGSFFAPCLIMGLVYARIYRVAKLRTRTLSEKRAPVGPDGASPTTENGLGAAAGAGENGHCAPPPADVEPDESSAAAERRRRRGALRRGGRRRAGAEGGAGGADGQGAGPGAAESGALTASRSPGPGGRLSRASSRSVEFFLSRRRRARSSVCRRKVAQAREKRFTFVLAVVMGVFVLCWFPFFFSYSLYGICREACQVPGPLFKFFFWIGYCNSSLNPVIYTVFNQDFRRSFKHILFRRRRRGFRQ

Cytochrome P450 1B1 = target: T5, Cytochrome P450 1B1 (Homo sapiens, UniProt Q16678); test: Competitive inhibition of human recombinant CYP1B1 using 7-Ethoxyresorufin as substrate by Lineweaver-Burk plot analysis; assay type: ADME; settings: read-out: Ki(app)
T5 sequence (Q16678 whole entry): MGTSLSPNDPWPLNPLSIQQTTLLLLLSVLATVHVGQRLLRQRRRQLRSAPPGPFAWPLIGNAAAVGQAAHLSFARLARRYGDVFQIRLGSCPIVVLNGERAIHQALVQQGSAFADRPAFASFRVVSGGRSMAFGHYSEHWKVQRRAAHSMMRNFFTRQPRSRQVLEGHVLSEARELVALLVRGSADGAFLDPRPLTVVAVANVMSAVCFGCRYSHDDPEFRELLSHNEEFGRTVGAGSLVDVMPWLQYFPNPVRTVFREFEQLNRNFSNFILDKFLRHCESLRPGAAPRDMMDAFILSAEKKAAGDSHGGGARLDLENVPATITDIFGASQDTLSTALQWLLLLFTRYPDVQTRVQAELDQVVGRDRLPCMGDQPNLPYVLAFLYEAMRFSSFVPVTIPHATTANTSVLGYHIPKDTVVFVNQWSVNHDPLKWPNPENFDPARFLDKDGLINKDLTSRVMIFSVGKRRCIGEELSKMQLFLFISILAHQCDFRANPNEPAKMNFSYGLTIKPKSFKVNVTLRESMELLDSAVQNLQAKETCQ

[6] = Cmax in human plasma at 14+/- 15 mg, po; assay type: ADME, cell-free; design: route oral, dose 14 mg; settings: 14 mg
[7] = Drug degradation in simulated gastric fluid at 40 mg incubated for 2 hrs by UPLC-MS analysis; assay type: ADME; settings: read-out: Drug degradation

Sequence of Cytochrome P450 3A5 (P20815 whole entry): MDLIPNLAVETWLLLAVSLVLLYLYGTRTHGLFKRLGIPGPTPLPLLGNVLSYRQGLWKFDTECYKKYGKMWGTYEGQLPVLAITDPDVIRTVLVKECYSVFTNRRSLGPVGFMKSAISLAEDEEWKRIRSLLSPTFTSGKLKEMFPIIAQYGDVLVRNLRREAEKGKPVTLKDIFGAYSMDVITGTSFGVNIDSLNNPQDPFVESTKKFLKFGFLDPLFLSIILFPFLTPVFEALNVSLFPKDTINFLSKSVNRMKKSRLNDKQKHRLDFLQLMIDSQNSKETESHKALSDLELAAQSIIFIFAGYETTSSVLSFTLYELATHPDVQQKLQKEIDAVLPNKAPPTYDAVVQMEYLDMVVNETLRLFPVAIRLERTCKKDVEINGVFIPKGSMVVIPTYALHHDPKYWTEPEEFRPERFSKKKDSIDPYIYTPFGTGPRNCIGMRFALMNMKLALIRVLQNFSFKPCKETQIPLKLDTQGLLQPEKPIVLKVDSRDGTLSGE

`C=C(C)[C@@H]1CCC(C)=C[C@H]1c1c(O)cc(CCCCC)cc1O` [CANNABIDIOL] gave a bioavailability [1] of 13%, a CL/F [2] of 41700 mL/min and a Ki (Cytochrome P450 3A5) of 190 nM. The Ki (Cytochrome P450 2A6) was 55 µM, the EC50 [3] was 8 µM and the Cmax [4] was 11.1 nM. It also gave a Ki (Cytochrome P450 1A2) of 2690 nM, a Ki [5] of 3.7 µM and a Ki (Cytochrome P450 1B1) of 3.63 µM. The Cmax [6] was 0.9 nM and the degraded at 2 h [7] was 98%.
